In ChEMBL document CHEMBL1781934, “Syntheses and studies of amamistatin B analogs reveals that anticancer activity is relatively independent of stereochemistry, ester or amide linkage and select replacement of one of the metal chelating groups” (Bioorg Med Chem Lett, 2011):
Converted amounts (≈) assume the structure as drawn.

Tests used:
MCF7 [1] = assay: Growth inhibition of human MCF7 cells at 20 uM after 72 hrs by crystal violet biomass reduction assay; type: functional; conditions: MCF7, 72 h, read-out: GI
MCF7 [2] = assay: Anticancer activity against human MCF7 cells after 72 hrs by crystal violet biomass reduction assay; type: functional, cell-based; conditions: MCF7, 72 h
PC-3 [3] = assay: Growth inhibition of human PC3 cells at 20 uM after 72 hrs by crystal violet biomass reduction assay; type: functional; conditions: PC-3, 72 h, read-out: GI
PC-3 [4] = assay: Anticancer activity against human PC3 cells after 72 hrs by crystal violet biomass reduction assay; type: functional, cell-based; conditions: PC-3, 72 h
P388 = assay: Cytotoxicity against mouse P388 cells; type: functional, cell-based

Row | Compound | IC50 (MCF7 [2]) [nM] | IC50 (PC-3 [4]) [nM] | inhibition of growth at 20 µM (MCF7 [1]) [%] | inhibition of growth at 20 µM (PC-3 [3]) [%] | IC50 (P388) [µg/mL]
1 | CCCCCCC[C@H](CC(=O)N[C@H]1CCCCN(O)C1=O)OC(=O)[C@H](CCCCN(O)C=O)NC(=O)c1nc(-c2ccccc2O)oc1C | 200 | 4000 | 94 | 72 | –
2 | CCCCCCC[C@@H](CC(=O)N[C@H]1CCCCN(O)C1=O)OC(=O)[C@H](CCCCN(O)C=O)NC(=O)c1nc(-c2ccccc2O)oc1C | 320 | 8000 | 91 | 62 | –
3 | CCCCCCC[C@H](CC(=O)N[C@H]1CCCCN(O)C1=O)NC(=O)[C@H](CCCCN(O)C=O)NC(=O)c1nc(-c2ccccc2O)oc1C | 550 | 9000 | 96 | 72 | –
4 | CCCCCCC[C@H](CC(=O)N[C@H]1CCCCN(O)C1=O)OC(=O)[C@H](CCCCN(O)C=O)NC(=O)[C@@H]1COC(c2ccccc2O)=N1 | 240 | 3000 | 87 | 83 | –
5 | CCCCCCC[C@@H](CC(=O)N[C@H]1CCCCN(O)C1=O)OC(=O)[C@H](CCCCN(O)C=O)NC(=O)[C@@H]1COC(c2ccccc2O)=N1 | 500 | 3000 | 89 | 79 | –
6 | CCCCCCC[C@H](CC(=O)N[C@H]1CCCCN(O)C1=O)OC(=O)[C@H](CCCCN(O)C=O)NC(=O)[C@H]1COC(c2ccccc2O)=N1 | 320 | 2000 | 92 | 90 | –
7 | CCCCCCC[C@H](OC(=O)[C@@H](CCCCN(O)C=O)NC(=O)c1nc(-c2ccccc2O)oc1C)C(C)(C)C(=O)N[C@H]1CCCCN(O)C1=O | – | – | – | – | 0.016 (≈ 0.0224 µM)
8 | CCCCCCC[C@H](OC(=O)[C@@H](CCCCN(O)C=O)NC(=O)c1nc(-c2cc(OC)ccc2O)oc1C)C(C)(C)C(=O)N[C@H]1CCCCN(O)C1=O [AMAMISTATIN A] | – | – | – | – | 0.015 (≈ 0.0201 µM)

Continued by falling IC50 (MCF7 [2]), values first:

Row | IC50 (MCF7 [2]) [nM] | IC50 (PC-3 [4]) [nM] | Compound | inhibition of growth at 20 µM (MCF7 [1]) [%] | inhibition of growth at 20 µM (PC-3 [3]) [%] | IC50 (P388) [µg/mL]
9 | 6000 | – | CCCCCCC[C@H](CC(=O)N[C@H]1CCCCN(O)C1=O)OC(=O)[C@H](CCCCN(O)C=O)NC(=O)c1cccc(O)c1O | 86 | 40 | –
10 | 3000 | 7500 | CCCCCCC[C@@H](CC(=O)N[C@H]1CCCCN(O)C1=O)OC(=O)[C@H](CCCCN(O)C=O)NC(=O)[C@H]1COC(c2ccccc2O)=N1 | 90 | 79 | –
11 | 2000 | 14000 | CCCCCCC[C@@H](CC(=O)N[C@H]1CCCCN(O)C1=O)NC(=O)[C@H](CCCCN(O)C=O)NC(=O)c1nc(-c2ccccc2O)oc1C | 95 | 68 | –
12 | 1000 | 7000 | CCCCCCC[C@@H](CC(=O)N[C@H]1CCCCN(O)C1=O)OC(=O)[C@H](CCCCN(O)C=O)NC(=O)c1cccc(O)c1O | 81 | 63 | –
13 | 800 | 9000 | CCCCCCC[C@@H](CC(=O)N[C@H]1CCCCN(O)C1=O)OC(=O)[C@H](CCCCN(O)C=O)NC(=O)c1coc(-c2ccccc2O)n1 | 93 | 60 | –
14 | 450 | 3750 | CCCCCCC[C@H](CC(=O)N[C@H]1CCCCN(O)C1=O)OC(=O)[C@H](CCCCN(O)C=O)NC(=O)c1coc(-c2ccccc2O)n1 | 91 | 85 | –
